Laboratory results published in patent publication US20100190832A1, “Mechanism-based inhibitors of transthyretin amyloidosis: studies with biphenyl ethers and structural templates” (NATIONAL INSTITUTE OF IMMUNOLOGY., priority 2008, published 2010).
Like-named read-outs stand apart in the source and are kept apart here.

Target: T1, WT-TTR (Homo sapiens, UniProt P02766)
T1 construct: made in house
Test: Stagnant acid-mediated TTR aggregation (fibril formation) assay, turbidity at 340 nm
Type: biochemical
Conditions: for remaining activity at 50 µM / remaining activity at 100 µM: 72 h; for remaining activity at 50 µM: read-out: % FF at 50 μM; for IC50: Table 3, WT-TTR 7.2 μM, read-out: IC50
Procedure: Stagnant Acid-Mediated TTR Aggregation Assay.
After 1 h, the samples were diluted with 0.5 ml of 200 mM sodium acetate buffer containing 100 mM KCl and 1 mM EDTA. Samples after mild vortexing were incubated at 37° C. for the desired amount of time without stirring to evaluate the efficacy of the inhibitors. The extent of aggregation was probed by turbidity measurements at 340 nm using Tecan GENios microplate reader. […] The extent of TTR fibril formation in the absence of inhibitor was defined to be 100%. […] All experiments were done in triplicate. […] The IC50 was determined by plotting mean of % inhibition vs log and fitted to sigmoid equation:
The experiments were conducted at 25° C. After 1 h, the samples were diluted with 0.5 mL of 200 mM sodium acetate buffer pH 4.4 containing 100 mM KCl and 1 mM EDTA, vortexed, and incubated at 37° C. for 72 h. […] The stoichiometry of the binding of the inhibitors was determined by HPLC as described by Green et al., N. S. Palaninathan, S, L, Sacchettini, J. e. […] Dissociation constant of binding of these compounds to TTR was determined by fluorescence titration, and data were fitted into the Adair equation for two bind mg.

[1] = biphenyl ether 50 μM, WT-TTR 7.2 μM
[2] = pH 4.4, compound 100 μM, WT-TTR 7.2 μM, pH 4.4, 37° C., read-out: % FF
[3] = pH 4.4, compound 100 μM, WT-TTR 7.2 μM, pH 4.4, 37° C., read-out: % Inhibition

Question: O=Cc1ccc(Oc2ccccc2)c(O)c1 [Compound 2] was tested. Which remaining activity at 50 µM did it give?
Answer: Its remaining activity at 50 µM is 112%.

Question: With COc1cc(CO)ccc1Oc1ccccc1 [Compound 3] as the compound, how does the remaining activity at 50 µM read?
Answer: Its remaining activity at 50 µM is 61.2%.

Question: With COc1cc(CO)ccc1Oc1ccc([N+](=O)[O-])cc1 [Compound 15] as the compound, how does the remaining activity at 50 µM [1] read?
Answer: Its remaining activity at 50 µM is 89.5%.

Question: With COc1cc(C=O)ccc1Oc1ccc([N+](=O)[O-])cc1[N+](=O)[O-] [Compound 16] as the compound, how does the remaining activity at 50 µM [1] read?
Answer: Its remaining activity at 50 µM is 66%.

Question: Which results are given for O=Cc1ccc(Oc2ccc([N+](=O)[O-])cc2[N+](=O)[O-])c(O)c1 [Compound 17]?
Answer: remaining activity at 50 µM: 40.5%; IC50: 55 µM

Question: COc1cc(CCl)ccc1Oc1ccc([N+](=O)[O-])cc1[N+](=O)[O-] [Compound 18] was tested. Which remaining activity at 50 µM [1] did it give?
Answer: The remaining activity at 50 µM was 79%.

Question: Which results are given for COc1cc(CO)ccc1Oc1ccc([N+](=O)[O-])cc1[N+](=O)[O-] [Compound 19]?
Answer: remaining activity at 50 µM: 28%; IC50: 20 µM

Question: With COc1cc(COC(C)=O)ccc1Oc1ccc([N+](=O)[O-])cc1[N+](=O)[O-] [Compound 20] as the compound, how does the remaining activity at 50 µM [1] read?
Answer: Its remaining activity at 50 µM is 69%.

Question: Which remaining activity at 50 µM does the source give for COc1cc(C(=O)O)ccc1Oc1ccc([N+](=O)[O-])cc1[N+](=O)[O-] [Compound 21] here?
Answer: Its remaining activity at 50 µM is 48%.

Question: And the IC50?
Answer: The IC50 was 20 µM.

Question: For O=C(O)c1ccc(Oc2ccc([N+](=O)[O-])cc2[N+](=O)[O-])c(O)c1 [Compound 22], which remaining activity at 50 µM [1] is on record?
Answer: Its remaining activity at 50 µM is 75%.

Question: How did the remaining activity at 100 µM [2] turn out when Oc1ccc(-c2nnc(S)o2)cc1 [Compound 0350-0159] was run?
Answer: Its remaining activity at 100 µM is 19.2%.

Question: What about the inhibition at 100 µM [3] of the same compound?
Answer: Its inhibition at 100 µM is 80.8%.

Question: Oc1ccccc1-c1nnc(S)o1 [Compound 0350-0160] was tested. Which remaining activity at 100 µM [2] did it give?
Answer: The remaining activity at 100 µM was 13.8%.

Question: What about the inhibition at 100 µM [3] of the same compound?
Answer: The inhibition at 100 µM was 86.2%.

Question: With Cc1ccc2nc(NC(=O)c3ccccc3O)sc2c1 [Compound 1300-0073] as the compound, how does the remaining activity at 100 µM [2] read?
Answer: Its remaining activity at 100 µM is 368%.

Question: What about the inhibition at 100 µM [3] of the same compound?
Answer: Its inhibition at 100 µM is 0%.

Question: What does the source list for Nc1nc(F)cc(Oc2ccc(F)cc2)n1 [Compound 1544-0071]?
Answer: remaining activity at 100 µM [2]: 84%; inhibition at 100 µM [3]: 16%

Question: Nc1nc(F)cc(Oc2ccccc2F)n1 [Compound 1544-0078] was tested. Which remaining activity at 100 µM [2] did it give?
Answer: The remaining activity at 100 µM was 54.4%.

Question: What about the inhibition at 100 µM [3] of the same compound?
Answer: Its inhibition at 100 µM is 45.6%.

Question: With CCc1ccc(Oc2cc(F)nc(N)n2)cc1 [Compound 1544-0079] as the compound, how does the remaining activity at 100 µM [2] read?
Answer: The remaining activity at 100 µM was 10.4%.

Question: And the inhibition at 100 µM [3]?
Answer: Its inhibition at 100 µM is 9.71%.

Question: What does the source list for Nc1nc(Cl)cc(Oc2ccccc2F)n1 [Compound 1545-0131]?
Answer: remaining activity at 100 µM [2]: 52.4%; inhibition at 100 µM [3]: 47.6%

Question: Which results are given for O=C1/C(=C\c2ccc(-c3ccc(Cl)cc3)o2)SC(=S)N1c1cccc(Cl)c1 [Compound 1934-0113]?
Answer: remaining activity at 100 µM [2]: 107%; inhibition at 100 µM [3]: 0%

Question: With Cc1ccccc1C1=N/C(=C\c2sccc2C)C(=O)O1 [Compound 1989-9396] as the compound, how does the remaining activity at 100 µM [2] read?
Answer: The remaining activity at 100 µM was 115%.

Question: What about the inhibition at 100 µM [3] of the same compound?
Answer: The inhibition at 100 µM was 0%.

Question: How did the remaining activity at 100 µM [2] turn out when CCN1C(=O)/C(=C/c2ccc(N(CC)CC)cc2O)SC1=S [Compound 1996-0170] was run?
Answer: The remaining activity at 100 µM was 177%.

Question: What about the inhibition at 100 µM [3] of the same compound?
Answer: The inhibition at 100 µM was 0%.

Question: Which results are given for Cn1ncc(/N=C/c2ccccc2O)c1C(=O)N1CCOCC1 [Compound 2019-0006]?
Answer: remaining activity at 100 µM [2]: 50%; inhibition at 100 µM [3]: 50%

Question: Which remaining activity at 100 µM [2] does the source give for O=C1/C(=C\c2ccco2)SC(=S)N1c1cccc(F)c1 [Compound 2027-0159] here?
Answer: Its remaining activity at 100 µM is 340%.

Question: And the inhibition at 100 µM [3]?
Answer: Its inhibition at 100 µM is 0%.

Question: Which results are given for O=C(O)c1cccc(-c2ccc(/C=C3\SC(=S)N(c4cccc(C(F)(F)F)c4)C3=O)o2)c1 [Compound 2027-0438]?
Answer: remaining activity at 100 µM [2]: 449%; inhibition at 100 µM [3]: 0%

Question: COc1ccc(/C=C2\SC(=S)N(c3ccc(O)cc3)C2=O)cc1 [Compound 2189-0710] was tested. Which remaining activity at 100 µM [2] did it give?
Answer: Its remaining activity at 100 µM is 281%.

Question: What about the inhibition at 100 µM [3] of the same compound?
Answer: Its inhibition at 100 µM is 0%.

Question: Which remaining activity at 100 µM [2] does the source give for COc1cc(/C=C2\SC(=S)N(c3ccc(O)cc3)C2=O)ccc1O [Compound 2189-0711] here?
Answer: The remaining activity at 100 µM was 230%.

Question: And the inhibition at 100 µM [3]?
Answer: The inhibition at 100 µM was 0%.

Question: What does the source list for O=C1/C(=C/c2ccc(Cl)cc2Cl)SC(=S)N1c1ccc(O)cc1 [Compound 2189-0835]?
Answer: remaining activity at 100 µM [2]: 291%; inhibition at 100 µM [3]: 0%

Question: What does the source list for O=C(O)CCCCCN1C(=O)/C(=C/c2c[nH]c3ccccc23)SC1=S [Compound 2279-3516]?
Answer: remaining activity at 100 µM (pH 4.4, read-out: % FF): 126%; inhibition at 100 µM (pH 4.4): 0%

Question: What does the source list for O=[N+]([O-])c1ccc(Cl)cc1Sc1nc2ccccc2s1 [Compound 2369-0691]?
Answer: remaining activity at 100 µM [2]: 8.2%; inhibition at 100 µM [3]: 91.8%
